For this assay, the target named is T1, hPARG (Homo sapiens, UniProt Q86W56).
T1 construct: made in house; host or cells: E. coli
Briefly: PARG enzymatic activity assay (HTRF). Particulars: C-terminal His6-tag hPARG 65 pM, biotinylated-NAD ribosylated PARP1 substrate 8 nM. Format: biochemical. On the procedure: HTRF assay was used to measure the ability of compounds to inhibit the activity of […] in vitro. C-terminal His6—tag PARG expressed in E. coli was purified and stored at −80° C. in aliquots. Assay measurements were performed with 1×buffer comprising 50 mM Tris pH 7.4, 0.1 mg/mL BSA, 3 mM EDTA, 0.4 mM EGTA, 1 mM DTT, 50 mM KCl and 0.01% Tween 20. Compounds dissolved in DMSO were plated into a 384-well assay plate (PerkinElmer, Catalog #: 6008280) in duplicate using a dispenser (Labcyte, Echo 665), and tested on a 10-point 4-fold serial dilution. Add 5 μL Enzyme mix [hPARG (C-terminal His6—tag, 4.2 μM), 65 pM final] to the test wells. The plates were covered and left to incubate for 60 minutes at RT before the addition of 5 μL substrate mix [biotinylated-NAD ribosylated PARP1 (6.1 μM), 8 nM final] to initiate reaction. After incubating 10 minutes at RT, add 2.5 μL Streptavidin-Eu cryptate (Cisbio, Catalog #: 610SAKLA) and 2.5 μL Mab anti 6HIS-XL665 (Cisbio, Catalog #: 61HISXLA) to the plate, and incubate for 60 minutes at RT. Read on a multimode plate reader (PerkinElmer, Envision 2015) in time-resolved fluorescence (TRF) mode, with excitation at 337 nm and emission at both 620 nm and 665 nm. Average HTRF signal of high control (Wells with 1% DMSO) was calculated and as Vehicle Control (VC). Average HTRF signal of low control (no Enzyme) was calculated and as Positive control (PC).
IC50 values were determined by fitting the data to the standard 4 parameters with Hill Slope using GraphPad Prism software.
Background: In TR-FRET formats the signal depends on donor and acceptor labels being close together.

A word on the IC50: it is the concentration needed to halve the response being measured.

T1 sequence (Q86W56 whole entry): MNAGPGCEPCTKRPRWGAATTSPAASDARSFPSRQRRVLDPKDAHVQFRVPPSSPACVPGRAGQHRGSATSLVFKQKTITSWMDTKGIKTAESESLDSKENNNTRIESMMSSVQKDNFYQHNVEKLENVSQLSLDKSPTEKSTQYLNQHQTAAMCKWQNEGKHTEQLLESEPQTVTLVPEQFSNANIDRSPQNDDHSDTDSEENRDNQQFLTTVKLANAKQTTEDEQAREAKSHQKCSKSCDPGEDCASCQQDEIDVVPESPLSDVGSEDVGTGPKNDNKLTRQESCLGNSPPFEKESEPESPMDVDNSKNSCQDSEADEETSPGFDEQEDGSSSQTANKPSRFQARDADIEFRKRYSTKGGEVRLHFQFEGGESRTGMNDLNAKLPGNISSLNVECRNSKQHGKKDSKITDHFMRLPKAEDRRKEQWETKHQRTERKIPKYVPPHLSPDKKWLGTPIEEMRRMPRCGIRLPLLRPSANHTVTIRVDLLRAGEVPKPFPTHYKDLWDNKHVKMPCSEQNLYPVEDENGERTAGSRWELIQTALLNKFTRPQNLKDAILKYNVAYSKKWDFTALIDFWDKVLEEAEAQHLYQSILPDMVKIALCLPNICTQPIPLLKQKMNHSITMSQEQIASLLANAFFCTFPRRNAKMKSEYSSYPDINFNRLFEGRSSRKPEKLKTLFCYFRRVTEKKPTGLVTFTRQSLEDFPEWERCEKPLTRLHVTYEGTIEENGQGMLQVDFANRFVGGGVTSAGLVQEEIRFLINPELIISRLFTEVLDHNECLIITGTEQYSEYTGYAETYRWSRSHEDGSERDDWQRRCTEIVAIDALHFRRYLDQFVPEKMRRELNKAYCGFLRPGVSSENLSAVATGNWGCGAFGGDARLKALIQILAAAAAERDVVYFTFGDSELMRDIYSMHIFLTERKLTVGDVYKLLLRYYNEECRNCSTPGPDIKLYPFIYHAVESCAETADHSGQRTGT

As for `CN(C[C@H]1CC[C@@H](O)CC1)c1ncnc2c1c1ccc(S(=O)(=O)NC3(C#N)CC3)cc1n2-c1nnc(C(F)F)s1` [Example 73, N-(1-Cyanocyclopropyl)-9-(5-(difluoromethyl)-1,3,4-thiadiazol-2-yl)-4-((((1s,4s)-4-hydroxycyclohexyl)methyl)(methyl)amino)-9H-pyrimido[4,5-b]indole-7-sulfonamide], the IC50 is ≤ 0.1 µM.
For `N#CC1(NS(=O)(=O)c2ccc3c4c(OCCN5CCCS5(=O)=O)ncnc4n(-c4nnc(C(F)F)s4)c3c2)CC1` [Example 91, N-(1-Cyanocyclopropyl)-9-(5-(difluoromethyl)-1,3,4-thiadiazol-2-yl)-4-(2-(1,1-dioxidoisothiazolidin-2-yl)ethoxy)-9H-pyrimido[4,5-b]indole-7-sulfonamide] the value was ≤ 0.1 µM; for `N#CC1(NS(=O)(=O)c2ccc3c4c(NCCN5CCOCC5)ncnc4n(-c4nnc(C(F)F)s4)c3c2)CC1` [Example 16, N-(1-Cyanocyclopropyl)-9-(5-(difluoromethyl)-1,3,4-thiadiazol-2-yl)-4-((2-morpholinoethyl)amino)-9H-pyrimido[4,5-b]indole-7-sulfonamide], ≤ 0.1 µM; for `CN(C[C@@H]1COCCN1C)c1ncnc2c1c1ccc(S(=O)(=O)NC3(C#N)CC3)cc1n2-c1nnc(C(F)F)s1` [Example 65, (R)-N-(1-Cyanocyclopropyl)-9-(5-(difluoromethyl)-1,3,4-thiadiazol-2-yl)-4-(methyl((4-methylmorpholin-3-yl)methyl)amino)-9H-pyrimido[4,5-b]indole-7-sulfonamide], ≤ 0.1 µM.
With `CN(C[C@H]1CCOC1)c1ncnc2c1c1ccc(S(=O)(=O)NC3(C#N)CC3)cc1n2-c1nnc(C(F)F)s1` [Example 57, (R)-N-(1-Cyanocyclopropyl)-9-(5-(difluoromethyl)-1,3,4-thiadiazol-2-yl)-4-(methyl((tetrahydrofuran-3-yl)methyl)amino)-9H-pyrimido[4,5-b]indole-7-sulfonamide], the IC50 is ≤ 0.1 µM.
For `N#CC1(NS(=O)(=O)c2ccc3c4c(NC(=O)CN5CCOCC5)ncnc4n(-c4nnc(C(F)F)s4)c3c2)CC1` [Example 82, N-(7-(N-(1-Cyanocyclopropyl)sulfamoyl)-9-(5-(difluoromethyl)-1,3,4-thiadiazol-2-yl)-9H-pyrimido[4,5-b]indol-4-yl)-2-morpholinoacetamide] the value was ≤ 0.1 µM; for `N#CC1(NS(=O)(=O)c2ccc3c4c(/C=C/CN5CCOCC5)ncnc4n(-c4nnc(C(F)F)s4)c3c2)CC1` [Example 85, (E)-N-(1-Cyanocyclopropyl)-9-(5-(difluoromethyl)-1,3,4-thiadiazol-2-yl)-4-(3-morpholinoprop-1-en-1-yl)-9H-pyrimido[4,5-b]indole-7-sulfonamide], ≤ 0.1 µM.
For `CN(C[C@H]1COCCN1C)c1ncnc2c1c1ccc(S(=O)(=O)NC3(C#N)CC3)cc1n2-c1nnc(C(F)F)s1` [Example 66, (S)-N-(1-Cyanocyclopropyl)-9-(5-(difluoromethyl)-1,3,4-thiadiazol-2-yl)-4-(methyl((4-methylmorpholin-3-yl)methyl)amino)-9H-pyrimido[4,5-b]indole-7-sulfonamide] the value was ≤ 0.1 µM; for `CCN[C@@H]1CCN(c2ncnc3c2c2ccc(S(=O)(=O)NC4(C#N)CC4)cc2n3-c2nnc(C(F)F)s2)C[C@@H]1F` [Example 93, N-(1-Cyanocyclopropyl)-9-(5-(difluoromethyl)-1,3,4-thiadiazol-2-yl)-4-((3S,4R)-4-(ethylamino)-3-fluoropiperidin-1-yl)-9H-pyrimido[4,5-b]indole-7-sulfonamide], ≤ 0.1 µM; for `COCCSc1ncnc2c1c1ccc(S(=O)(=O)NC3(C#N)CC3)cc1n2-c1nnc(C(F)F)s1` [Example 84, N-(1-Cyanocyclopropyl)-9-(5-(difluoromethyl)-1,3,4-thiadiazol-2-yl)-4-((2-methoxyethyl)thio)-9H-pyrimido[4,5-b]indole-7-sulfonamide], 0.1 to 1 µM.
As for `N#CC1(NS(=O)(=O)c2ccc3c4c(OCCCN5CCOCC5)ncnc4n(-c4nnc(C(F)F)s4)c3c2)CC1` [Example 2, N-(1-Cyanocyclopropyl)-9-(5-(difluoromethyl)-1,3,4-thiadiazol-2-yl)-4-(3-morpholinopropoxy)-9H-pyrimido[4,5-b]indole-7-sulfonamide], the figure is ≤ 0.1 µM; as for `CN(CCN1CCC(F)(F)CC1)c1ncnc2c1c1ccc(S(=O)(=O)NC3(C#N)CC3)cc1n2-c1nnc(C(F)F)s1` [Example 77, N-(1-Cyanocyclopropyl)-9-(5-(difluoromethyl)-1,3,4-thiadiazol-2-yl)-4-((2-(4,4-difluoropiperidin-1-yl)ethyl)(methyl)amino)-9H-pyrimido[4,5-b]indole-7-sulfonamide], 0.1 to 1 µM; as for `N#CC1(NS(=O)(=O)c2ccc3c4c(N5C[C@H]6C[C@@H]5CC6(F)F)ncnc4n(-c4nnc(C(F)F)s4)c3c2)CC1` [Example 40, N-(1-Cyanocyclopropyl)-4-((1R,4R)-5,5-difluoro-2-azabicyclo [2.2.1]heptan-2-yl)-9-(5-(difluoromethyl)-1,3,4-thiadiazol-2-yl)-9H-pyrimido[4,5-b]indole-7-sulfonamide], 0.1 to 1 µM.
With `Cc1nc(C)n(CCN(C)c2ncnc3c2c2ccc(S(=O)(=O)NC4(C#N)CC4)cc2n3-c2nnc(C(F)F)s2)n1` [Example 71, N-(1-Cyanocyclopropyl)-9-(5-(difluoromethyl)-1,3,4-thiadiazol-2-yl)-4-((2-(3,5-dimethyl-1H-1,2,4-triazol-1-yl)ethyl)(methyl)amino)-9H-pyrimido[4,5-b]indole-7-sulfonamide], the half-inhibitory concentration (IC50) is > 1 µM.
For `CN(CC1CCCOC1)c1ncnc2c1c1ccc(S(=O)(=O)NC3(C#N)CC3)cc1n2-c1nnc(C(F)F)s1` (stereo not shown) [Example 68, N-(1-Cyanocyclopropyl)-9-(5-(difluoromethyl)-1,3,4-thiadiazol-2-yl)-4-(methyl((tetrahydro-2H-pyran-3-yl)methyl)amino)-9H-pyrimido[4,5-b]indole-7-sulfonamide] the value was ≤ 0.1 µM; for `CCc1cnc2n1CCN(c1ncnc3c1c1ccc(S(=O)(=O)NC4(C#N)CC4)cc1n3-c1nnc(C(F)F)s1)C2` [Example 54, N-(1-Cyanocyclopropyl)-9-(5-(difluoromethyl)-1,3,4-thiadiazol-2-yl)-4-(3-ethyl-5,6-dihydroimidazo[1,2-a]pyrazin-7(8H)-yl)-9H-pyrimido[4,5-b]indole-7-sulfonamide], ≤ 0.1 µM; for `CN(CCN1CCS(=O)(=O)CC1)c1ncnc2c1c1ccc(S(=O)(=O)NC3(C#N)CC3)cc1n2-c1nnc(C(F)F)s1` [Example 78, N-(1-Cyanocyclopropyl)-9-(5-(difluoromethyl)-1,3,4-thiadiazol-2-yl)-4-((2-(1,1-dioxidothiomorpholino)ethyl)(methyl)amino)-9H-pyrimido[4,5-b]indole-7-sulfonamide], ≤ 0.1 µM.
As to `Cc1cnc2n1CCN(c1ncnc3c1c1ccc(S(=O)(=O)NC4(C#N)CC4)cc1n3-c1nnc(C(F)F)s1)C2` [Example 53, N-(1-Cyanocyclopropyl)-9-(5-(difluoromethyl)-1,3,4-thiadiazol-2-yl)-4-(3-methyl-5,6-dihydroimidazo[1,2-a]pyrazin-7(8H)-yl)-9H-pyrimido[4,5-b]indole-7-sulfonamide], the IC50 was ≤ 0.1 µM.
As for `N#CC1(NS(=O)(=O)c2ccc3c4c(N5CCn6ncnc6C5)ncnc4n(-c4nnc(C(F)F)s4)c3c2)CC1` [Example 49, N-(1-Cyanocyclopropyl)-9-(5-(difluoromethyl)-1,3,4-thiadiazol-2-yl)-4-(5,6-dihydro-[1,2,4]triazolo[1,5-a]pyrazin-7(8H)-yl)-9H-pyrimido[4,5-b]indole-7-sulfonamide], the figure is ≤ 0.1 µM; as for `CN(CCn1cccn1)c1ncnc2c1c1ccc(S(=O)(=O)NC3(C#N)CC3)cc1n2-c1nnc(C(F)F)s1` [Example 24, 4-((2-(1H-Pyrazol-1-yl)ethyl)(methyl)amino)-N-(1-cyanocyclopropyl)-9-(5-(difluoromethyl)-1,3,4-thiadiazol-2-yl)-9H-pyrimido[4,5-b]indole-7-sulfonamide], 0.1 to 1 µM.
As for `CN1CCN(CCN(C)c2ncnc3c2c2ccc(S(=O)(=O)NC4(C#N)CC4)cc2n3-c2nnc(C(F)F)s2)C1=O` [Example 60, N-(1-Cyanocyclopropyl)-9-(5-(difluoromethyl)-1,3,4-thiadiazol-2-yl)-4-(methyl(2-(3-methyl-2-oxoimidazolidin-1-yl)ethyl)amino)-9H-pyrimido[4,5-b]indole-7-sulfonamide], the figure is ≤ 0.1 µM; as for `N#CC1(NS(=O)(=O)c2ccc3c4c(N5CCC(N6CCC(F)(F)CC6)[C@@H](F)C5)ncnc4n(-c4nnc(C(F)F)s4)c3c2)CC1` (stereo partly drawn) [Example 36, N-(1-Cyanocyclopropyl)-9-(5-(difluoromethyl)-1,3,4-thiadiazol-2-yl)-4-((3′S)-3′,4,4-trifluoro-[1,4′-bipiperidin]-1′-yl)-9H-pyrimido[4,5-b]indole-7-sulfonamide], ≤ 0.1 µM.

For the origin of these results see patent publication US20260049088A1, “TRICYCLIC HETEROCYCLIC DERIVATIVES, COMPOSITIONS AND USES THEREOF” (Danatlas Pharmaceuticals Co., Ltd., priority 2023, published 2026).
